We go through one compound from US20020115724A1, “Methods and agents for inhibiting protein aging” (priority 1985, published 2002).

Series [1] relates to calf skin collagen. The series is described as follows: Calf skin collagen crosslinking by glucose: solubilization in 2% sodium dodecyl sulfate. To be noted: 140 mM glucose, 200 mM aminoguanidine, 3 weeks, 35° C. It counts as biochemical. The method, then:
As a further evaluation of the compound aminoguanidine as a model for the prevention of protein trapping, crosslinking and formation of advanced glycosylation end products, the following experiment using calf skin collagen was performed. Collagen is a protein in the skin responsible for the suppleness of skin, and crosslinking leads to wrinkling, decreased elasticity, reduced susceptibility to proteolytic degradation, and other changes.
(§1) Collagen from samples of calf skin were extracted into acetic acid and then precipitated with 0.6 M sodium chloride. These procedures removed from the solution skin collagen that was already permanently crosslinked or denatured. Native collagen fibrils were reformed by dialysis against 0.02M phosphate buffer, and these were incubated for 3 weeks at 35° C. in the presence of 140 mM glucose and with or without 200 mM aminoguanidine. After incubation, the samples were dialyzed and the degree of crosslinking was determined by two methods. First, the amount of reacted collagen which could be solubilized by treatment in 2% sodium dodecyl sulfate at 100° C. was measured.

Series [2] deals with calf skin collagen. Kind of series: Calf skin collagen crosslinking by glucose: cyanogen bromide fragments on SDS-polyacrylamide gel. It counts as biochemical. To be noted: 140 mM glucose, 200 mM aminoguanidine, 3 weeks, 35° C.; Lane B. As to the method:
as §1
The reacted collagen was further examined by cleaving it into fragments using cyanogen bromide treatment in formic acid, the resulting protein fragments were separated by size by sodium dodecyl sulfate-polyacrylamide gel electrophoresis. After electrophoresis, the protein fragments were identified in the gel using silver staining.
Referring to FIG. 3B, Lane C contains collagen that was incubated with glucose alone. It is noted that a large amount of high molecular weight fragments form a continuous band at the top of the gel, indicating a large range of high molecular weight fragments. Some of this material could not enter the gel and is present in the […] stacking gel above the gradient gel. […]

The subject of another series is normal and diabetic rats. Kind of series: IgG bound to glomerular basement membranes, enzyme immunoassay. To be noted: 25 mg/kg daily intraperitoneal, 16 weeks. It counts as in vivo, rat. The method, then:
To measure the level of advanced glycosylation end products in vivo, the kidneys of rats were examined for serum proteins which had become attached to glomerular basement membranes. This was determined to be a good model in which to study this process as it is known that significant kidney pathology occurs in untreated diabetes as a result of the buildup of extravasated plasma protein in the extravascular matrix in this organ.
The experiment consisted of giving both normal and diabetic rats daily intraperitoneal doses of the agent aminoguanidine hydrochloride at a dose of 25 mg per kilogram of body weight, for a period of 16 weeks. […] Diabetes was induced prior to drug therapy with a single dose of streptozotocin. Control animals, both diabetic and normal, received no drug.
At the end of the agent therapy, animals were sacrificed and the kidneys were removed. Each organ was removed from its capsule and the medulla was removed. […]
After overnight incubation to allow the antibody to bind to any IgG crosslinked to the glomerular basement membranes, the membranes were pelleted by centrifugation at 3200 rpm for five minutes and were washed free of the unbound antibody-enzyme conjugate with four rinses with PBS plus Tween followed by three rinses with distilled water. […] The reaction was stopped with the addition of 0.2 mL of M sodium hydroxide, and the absorbance at 400 nm was measured.

Series [3] deals with demineralized bone matrix particles. The series is described as follows: Bone differentiation of AGE-modified demineralized bone matrix implanted in rats. It is filed as in vivo, rat. As to the method:
In order to assess the possible role of hyperglycemia-induced matrix modifications in this process, demineralized bone matrix particles from 35 week old normal Long-Evans rats were prepared. Matrix is incubated in phosphate buffered saline alone (PBS), PBS containing various sugar precursors of AGE (PBS−G), and PBS with sugars plus the AGE-inhibitor aminoguanidine (PBS−G+AG). After incubation, the matrix is washed and implanted subcutaneously in normal rats. Twelve days after implantation, ^45CaCl2 is injected to determine implant mineralization, and alkaline phosphatase activity is measured to assess osteoblast function. Duplicate specimens are fixed, embedded and stained for histologic evaluation.

Series [4] in a line: Irritation on intraperitoneal injection, salt compared with free base. It counts as in vivo.
In a further series the test system is histamine. To be noted: in vivo; cited from earlier work.
The next series concerns kidney. To be noted: in vivo; cited from earlier work.
Series [5] relates to streptozotocin-diabetic rat. To be noted: streptozotocin-diabetic rat model; cited from earlier work.
The subject of another series is diabetic rats. To be noted: cited from earlier work.

SMILES strings stand for the structures. Where a name gives a salt, the structure may show the parent alone.

With `N=C(N)NN` [aminoguanidine hydrochloride], in the series with calf skin collagen [1], the “solubility of reacted collagen in 2% sodium dodecyl sulfate at 100° C.” value is on record as “as soluble as collagen incubated in buffer alone”. In addition, the “high molecular weight fragments after cyanogen bromide cleavage (gel)” value with calf skin collagen [2] was “no large amount of high molecular weight material”. Also, the “IgG bound to glomerular basement membranes” value is “the same low level of IgG in normal animals” in the series on normal and diabetic rats (diabetic rats); “about the same low level” with normal and diabetic rats (normal rats). For the same compound, in [3] (matrix incubated with AGE precursor plus aminoguanidine, implanted subcutaneously, 12 days), the bone differentiation was 80 % of control. The “matrix AGE content (specific fluorescence)” value in [3] (simultaneous incubation of matrix with AGE precursor and aminoguanidine) was “reduced fluorescence to normal”. For the same compound, the “irritation compared with the parent free base” value in [4] was “less irritating”. The levels of histamine result in the series on histamine is recorded as “increase levels of histamine”. Also, the “immunoglobulin trapping in the kidney” value in the series with kidney is recorded as “reduction of immunoglobulin trapping in the kidney”. Further, the “increased glomerular basement membrane thickness” value in [5] is “prevented”. Besides, the “increased cross-linking of collagen (tendon fiber breaking time in urea bath, mechanical strength)” value in the series with diabetic rats was “prevented”.
